Laboratory results from patent publication US10072017B2, “Compounds and methods for the treatment of cystic fibrosis” (Flatley Discovery Lab, LLC, priority 2015, dated 2018).

Molecular target: T1, CFTR (Homo sapiens, UniProt P13569, DEL508-508)
T1 construct: Primary CF airway epithelial cells were obtained from the UNC Cystic Fibrosis Tissue Procurement and Cell Culture Core; host or cells: primary CF airway epithelial cells
Experiment: Equivalent current assay in Primary CF airway epithelial cells (NAUC)
Assay type: cell-based
Conditions: 24 h, normalized to VX809 (3 μM) positive control; for Nauc @ 3 μM: 3 μM test compound; for Nauc @ 10 μM: 10 μM test compound
Method: Primary CF airway epithelial cells were obtained from the UNC Cystic Fibrosis Tissue Procurement and Cell Culture Core. The cells are grown at 37° C. in a Heracell 150i incubator using growth media (BEGM, Fischer). Cells were then transferred to differentiation media (ALI, UNC) for a minimum of 4 weeks on coated Costar snapwells. Two days before the Ussing assay the mucus on the apical surface of the cells was aspirated after incubating with 200 μL of differentiation Media for at least thirty (30) minutes. One day before the Ussing assay test compounds were added to the basolateral surface of the cells at various test concentrations dissolved in DMSO. Duplicate wells were prepared giving a n=3 or n=4 protocol.
Cells were treated for 24 hours with various combinations and concentrations of the test articles, reference standard (3 μM VX809, positive control). Compounds stock solutions were prepared in DMSO and diluted 1/1000 into ALI media to their final assay concentration. Cells were treated with combination solutions (2 mL of each dilution) and incubated at 37° C. for 24 h.
For the equivalent current assay, cells on four Transwell (24-well) plates were treated. Each Transwell plate was filled with 200 μl of HBS on the apical surface and 2 ml on the basolateral surface. Plates were placed horizontally in a heated mount at 37° C., and equilibrated for several minutes. Resting current was measured for 15 min and then blocked by the apical addition of 5 μM benzamil. After 20 min, 10 μM forskolin and 1 μM VX770 were added to both the apical and basolateral side to stimulate CFTR. An increase in chloride current is seen as an upward deflection of the trace. After another 30 min, CFTR-172 (a CFTR inhibitor, 20 μM) and/or bumetanide (20 uM) was added to block CFTR mediated chloride current.
The raw data, current vs. time for the Ussing chamber (sampling interval: 10 s) and voltage vs. time and resistance vs. time for the equivalent current assay (sampling interval: 5 minutes) were transferred to Excel (Microsoft Office Professional, version 14.0.7106.5003) for analysis. CFTR specific current was measured as the average amplitude of the increase in current elicited upon addition forskolin and ending upon addition of the CFTR channel specific blocker CFTR-172. This average is equivalent to the sum of the average forskolin activated and the average VX770-potentiated currents. The average current measured in vehicle (0.1% DMSO) treated cells, Iv, was subtracted from the current for the test article, ITA, or from the corrector reference standard VX809 (3 uM ISTD. For replicate measurements, the average vehicle subtracted response for the test article, was normalized to the average vehicle subtracted inhibitor response of the reference corrector VX809 (3 μM). INSC=(ITA−IV)(ave)/(ISTD−IV)(ave) (Equation 1)
A second endpoint, for the equivalent current assay, evaluated was NAUC, the normalized area under the curve (AUC) measuring the response after addition of forskolin and VX770 to the time point right before the addition of the CFTR inhibitor. The AUC is effectively the average response multiplied by the duration of the response. The AUC of the test article, AUCTA was then corrected by subtracting the average vehicle response, AUCV,ave over the same time range, and normalized as for the inhibitor-sensitive current to the difference of the corrector reference standard VX809 (3 μM VX809r,ave and the vehicle response: NAUCTA=[AUCTA−AUCV,ave]/[AUCVx809r,ave−AUCV,ave] (Equation 2).
The normalized value for DMSO is 0.0 and for VX-809 alone is 1.0. Combinations of compounds with VX-809 that give normalized values greater than 1.0 show activity in the combination assay. A value of 2 means the test compound doubles the effect to VX-809 alone.
Experiments were run with a minimum of n=4 replicates per concentration. […]

T1 sequence (P13569 with tags, fused parts or gaps DEL508-508): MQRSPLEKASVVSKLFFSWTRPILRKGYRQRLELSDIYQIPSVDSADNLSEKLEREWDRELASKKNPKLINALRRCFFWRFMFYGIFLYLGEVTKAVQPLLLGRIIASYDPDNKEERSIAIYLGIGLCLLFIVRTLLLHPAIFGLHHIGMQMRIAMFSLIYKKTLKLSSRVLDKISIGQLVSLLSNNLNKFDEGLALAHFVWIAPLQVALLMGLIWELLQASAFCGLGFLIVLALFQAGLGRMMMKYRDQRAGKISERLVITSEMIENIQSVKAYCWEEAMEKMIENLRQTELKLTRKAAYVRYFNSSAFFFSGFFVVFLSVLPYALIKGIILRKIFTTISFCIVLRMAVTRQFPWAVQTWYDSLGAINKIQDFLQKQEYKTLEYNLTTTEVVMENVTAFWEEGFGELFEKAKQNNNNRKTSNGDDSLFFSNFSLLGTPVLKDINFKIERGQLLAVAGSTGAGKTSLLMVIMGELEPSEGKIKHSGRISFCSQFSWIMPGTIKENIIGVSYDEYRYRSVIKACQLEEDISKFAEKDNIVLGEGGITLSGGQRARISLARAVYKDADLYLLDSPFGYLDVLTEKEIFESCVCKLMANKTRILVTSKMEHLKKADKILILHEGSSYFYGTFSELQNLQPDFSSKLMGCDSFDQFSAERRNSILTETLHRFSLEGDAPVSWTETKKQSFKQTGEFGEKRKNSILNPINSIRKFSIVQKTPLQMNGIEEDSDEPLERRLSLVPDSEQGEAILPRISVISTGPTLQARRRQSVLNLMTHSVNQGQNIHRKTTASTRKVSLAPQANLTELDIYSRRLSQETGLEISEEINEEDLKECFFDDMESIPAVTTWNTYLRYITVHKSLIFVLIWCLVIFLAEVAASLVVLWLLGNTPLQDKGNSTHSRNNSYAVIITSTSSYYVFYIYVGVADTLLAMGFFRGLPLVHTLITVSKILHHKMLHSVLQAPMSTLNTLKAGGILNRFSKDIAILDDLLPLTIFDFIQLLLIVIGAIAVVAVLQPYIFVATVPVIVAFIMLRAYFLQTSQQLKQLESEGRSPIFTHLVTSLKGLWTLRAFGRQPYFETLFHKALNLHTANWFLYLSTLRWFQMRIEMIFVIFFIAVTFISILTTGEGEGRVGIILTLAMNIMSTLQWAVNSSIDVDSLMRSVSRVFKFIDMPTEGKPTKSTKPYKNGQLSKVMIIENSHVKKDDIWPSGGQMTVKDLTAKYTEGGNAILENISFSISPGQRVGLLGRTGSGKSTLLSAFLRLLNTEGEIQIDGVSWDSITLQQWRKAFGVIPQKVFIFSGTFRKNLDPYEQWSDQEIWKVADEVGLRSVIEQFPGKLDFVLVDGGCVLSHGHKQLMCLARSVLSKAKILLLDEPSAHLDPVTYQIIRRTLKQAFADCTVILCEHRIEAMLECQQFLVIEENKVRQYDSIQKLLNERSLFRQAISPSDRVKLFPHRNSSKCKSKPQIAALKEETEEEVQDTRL

| Compound | Nauc @ 3 μM | Nauc @ 10 μM |
| --- | --- | --- |
| CC(=O)N[C@H]1CC2C3C(=O)N(c4cc(Cl)cc(Cl)c4)C(=O)C3C3(C(=O)Nc4c(Cl)cc(Cl)cc43)N2C1 (stereo partly shown) [Example 135] | +++ (NAUC “+++” refers to an observed NAUC >170% of positive control) | + (NAUC “+” refers to an observed NAUC <140% of positive control) |
| COc1cc(Cl)cc(N2C(=O)C3C4C[C@H](O)CN4C4(C(=O)Nc5c(Cl)cc(Cl)cc54)C3C2=O)c1 (stereo partly shown) [Example 74] | +++ (NAUC “+++” refers to an observed NAUC >170% of positive control) | +++ (NAUC “+++” refers to an observed NAUC >170% of positive control) |
| O=C1[C@H]2[C@@H](C(=O)N1c1cc(Cl)cc(Cl)c1)[C@]1(C(=O)Nc3c(Cl)cc(Cl)cc31)N1CCC[C@@H]21 (single isomer, unassigned) [Example 13] | +++ (NAUC “+++” refers to an observed NAUC >170% of positive control) | +++ (NAUC “+++” refers to an observed NAUC >170% of positive control) |
| O=C1C2C3CC(=C(F)F)CN3C3(C(=O)Nc4c(Cl)cc(Cl)cc43)C2C(=O)N1c1cc(F)cc(Cl)c1 (stereo not shown) [Example 124] | + (NAUC “+” refers to an observed NAUC <140% of positive control) | ++ (NAUC “++” refers to an observed NAUC 170-140% of positive control) |
| O=C1C2C3c4ccccc4CN3C3(C(=O)Nc4c(Cl)cc(Cl)cc43)C2C(=O)N1c1cc(Cl)cc(Cl)c1 (stereo not shown) [Example 22] | +++ (NAUC “+++” refers to an observed NAUC >170% of positive control) | +++ (NAUC “+++” refers to an observed NAUC >170% of positive control) |
| Cc1cc(CC2NC3(C(=O)Nc4c(Cl)cc(Cl)cc43)C3C(=O)N(c4cc(Cl)cc(Cl)c4)C(=O)C23)no1 (stereo not shown) [Example 237] | ++ (NAUC “++” refers to an observed NAUC 170-140% of positive control) | + (NAUC “+” refers to an observed NAUC <140% of positive control) |
| O=C1C2C(Cc3ccccc3Cl)NC3(C(=O)Nc4c(Cl)cc(Cl)cc43)C2C(=O)N1c1cc(Cl)cc(Cl)c1 (stereo not shown) [Example 246] | +++ (NAUC “+++” refers to an observed NAUC >170% of positive control) | +++ (NAUC “+++” refers to an observed NAUC >170% of positive control) |
| [2H]C12C(=O)N(c3cc(Cl)cc(Cl)c3)C(=O)C1([2H])C1(C(=O)Nc3c(Cl)cc(Cl)cc31)N1CCCC12 (single isomer, unassigned) [Example 70] | +++ (NAUC “+++” refers to an observed NAUC >170% of positive control) | +++ (NAUC “+++” refers to an observed NAUC >170% of positive control) |
| COc1cc(Cl)cc(N2C(=O)C3C4CC(C)(C)CN4C4(C(=O)Nc5c(Cl)cc(Cl)cc54)C3C2=O)c1 (stereo not shown) [Example 127] | ++ (NAUC “++” refers to an observed NAUC 170-140% of positive control) | + (NAUC “+” refers to an observed NAUC <140% of positive control) |
| O=C1C2C3CCCN3C3(C(=O)Nc4ccc(C(F)(F)F)cc43)C2C(=O)N1c1cc(Cl)cc(Cl)c1 (stereo not shown) [Example 30] | ++ (NAUC “++” refers to an observed NAUC 170-140% of positive control) | +++ (NAUC “+++” refers to an observed NAUC >170% of positive control) |
| O=C1C2C3CCCN3C3(C(=O)Nc4c(Cl)cc(Cl)cc43)C2C(=O)N1c1cc(F)cc(F)c1 (stereo not shown) [Example 21] | ++ (NAUC “++” refers to an observed NAUC 170-140% of positive control) | ++ (NAUC “++” refers to an observed NAUC 170-140% of positive control) |
| N#Cc1cc(Cl)cc(N2C(=O)C3C4CCCN4C4(C(=O)Nc5c(Cl)cc(Cl)cc54)C3C2=O)c1 (stereo not shown) [Example 31] | + (NAUC “+” refers to an observed NAUC <140% of positive control) | +++ (NAUC “+++” refers to an observed NAUC >170% of positive control) |
| O=C1C2C3C[C@H](O)CN3C3(C(=O)Nc4c(Br)cc(Br)cc43)C2C(=O)N1c1cc(Cl)cc(Cl)c1 (single isomer, unassigned) [Example 51] | +++ (NAUC “+++” refers to an observed NAUC >170% of positive control) | ++ (NAUC “++” refers to an observed NAUC 170-140% of positive control) |
| O=C1C2C3C[C@H](F)CN3C3(C(=O)Nc4c(Cl)cc(Cl)cc43)C2C(=O)N1c1cc(Cl)cc(Cl)c1 (single isomer, unassigned) [Example 243] | +++ (NAUC “+++” refers to an observed NAUC >170% of positive control) | +++ (NAUC “+++” refers to an observed NAUC >170% of positive control) |
| CC1(C)CC2C3C(=O)N(c4cc(Cl)cc(Cl)c4)C(=O)C3C3(C(=O)Nc4c(Cl)cc(Cl)cc43)N2C1 (stereo not shown) [Example 103] | ++ (NAUC “++” refers to an observed NAUC 170-140% of positive control) | +++ (NAUC “+++” refers to an observed NAUC >170% of positive control) |
| O=C1C2C(Cc3ccccn3)NC3(C(=O)Nc4c(Cl)cc(Cl)cc43)C2C(=O)N1c1cc(Cl)cc(Cl)c1 (stereo not shown) [Example 203] | ++ (NAUC “++” refers to an observed NAUC 170-140% of positive control) | ++ (NAUC “++” refers to an observed NAUC 170-140% of positive control) |
| COc1c(Cl)cc(N2C(=O)C3C4CCCN4C4(C(=O)Nc5c(Cl)cc(Cl)cc54)C3C2=O)cc1Cl (single isomer, unassigned) [Example 112] | +++ (NAUC “+++” refers to an observed NAUC >170% of positive control) | +++ (NAUC “+++” refers to an observed NAUC >170% of positive control) |
| O=C1C2C3CCCN3C3(C(=O)Nc4c(Cl)cc(Cl)cc43)C2C(=O)N1c1nccs1 (stereo not shown) [Example 216] | ++ (NAUC “++” refers to an observed NAUC 170-140% of positive control) | + (NAUC “+” refers to an observed NAUC <140% of positive control) |
| CC12C(=O)N(c3cc(Cl)cc(Cl)c3)C(=O)C1C1(C(=O)Nc3c(Cl)cc(Cl)cc31)N1CCCC12 (single isomer, unassigned) [Example 54] | ++ (NAUC “++” refers to an observed NAUC 170-140% of positive control) | + (NAUC “+” refers to an observed NAUC <140% of positive control) |
| Cc1ccccc1CC1NC2(C(=O)Nc3c(Cl)cc(Cl)cc32)C2C(=O)N(c3cc(Cl)cc(Cl)c3)C(=O)C12 (stereo not shown) [Example 199] | +++ (NAUC “+++” refers to an observed NAUC >170% of positive control) | ++ (NAUC “++” refers to an observed NAUC 170-140% of positive control) |
| O=C(O)CC1NC2(C(=O)Nc3c(Cl)cc(Cl)cc32)C2C(=O)N(c3cc(Cl)cc(Cl)c3)C(=O)C12 (stereo not shown) [Example 157] | +++ (NAUC “+++” refers to an observed NAUC >170% of positive control) | + (NAUC “+” refers to an observed NAUC <140% of positive control) |
| CC(C)CC1NC2(C(=O)Nc3c(Cl)cc(Cl)cc32)C2C(=O)N(c3cc(Cl)cc(Cl)c3)C(=O)C12 (stereo not shown) [Example 164] | ++ (NAUC “++” refers to an observed NAUC 170-140% of positive control) | +++ (NAUC “+++” refers to an observed NAUC >170% of positive control) |
| O=C1C2C3C[C@H](O)CN3C3(C(=O)Nc4ccc(C(F)(F)F)cc43)C2C(=O)N1c1cc(Cl)cc(Cl)c1 (single isomer, unassigned) [Example 50] | ++ (NAUC “++” refers to an observed NAUC 170-140% of positive control) | + (NAUC “+” refers to an observed NAUC <140% of positive control) |
